# In PubChem BioAssay AID602164 (The Scripps Research Institute Molecular Screening Center, 2012):
# pIC50: −log10 of the molar value.
# System: 2B4/Mcl-1 cells apoptosis, absorbance viability
# Assay: apoptosis induction in Mcl-1-dependent versus Bcl-2 cells, late-stage follow-up, selectivity assay for MCL1-BIM inhibitor project, cell-based, absorbance, 2B4/Mcl1 vs 2B4/Bcl-2 (AID 602164)
row,Compound,pIC50
1,Oc1c(C(c2cccs2)N2CCCCC2)ccc2cccnc12 (stereo not drawn),5.36
2,CN1CCN(C(c2ccc(F)cc2)c2ccc3cccnc3c2O)CC1 (stereo not drawn),5.40
3,OCCN1CCN(C(c2cccs2)c2ccc3cccnc3c2O)CC1 (stereo not drawn),5.29
4,CCN1CCN(C(c2cccs2)c2ccc3cccnc3c2O)CC1 (stereo not drawn),5.42
5,Cc1ccnc(NC(c2cccs2)c2ccc3cccnc3c2O)c1 (stereo not drawn),5.62
6,Oc1c(C(Nc2ccccn2)c2cccs2)ccc2cccnc12 (stereo not drawn),5.51
7,CC(C)Oc1ccc(C(Nc2ccccn2)c2ccc3cccnc3c2O)cc1 (stereo not drawn),5.64
8,Oc1c(C(c2cccs2)N2CCN(c3ccccn3)CC2)ccc2cccnc12 (stereo not drawn),5.43
